Measured values as given in patent US10408836B2 (priority 2013, dated 2019).

Assays:
[1] = target: A/Brisbane/10/07-Like (H3N2/07-S) neuraminidase (Influenza A virus, UniProt A8W8R2); type: biochemical; conditions: pH 7, 25000 µM
[2] = target: B/Memphis/20/96 (Vict/96-R) neuraminidase (Influenza B virus, UniProt C7FPS7); conditions: pH 7, 25000 µM
[3] = target: B/Brisbane/60/08 (Vict/06-S) neuraminidase (Influenza B virus, UniProt C0LT34); test: biochemical; conditions: pH 7, read-out: % of max NA act. + EDTA (pH)
[4] = target: Recombinant N1 protein A/California/04/09 (N1pdm/09-R) (Influenza A virus (H1N1), UniProt C3W5S3); conditions: pH 6, 25000 µM
[5] = target: Recombinant N1 protein A/California/04/09 (N1pdm/09-S) (Influenza A virus (H1N1), UniProt C3W5S3); test: biochemical; conditions: pH 6, read-out: % of max NA act. + EDTA (pH)
[6] = target: A/Florida/21/08 (H1N1/08-R) neuraminidase (Influenza A virus, UniProt G3LYR2); conditions: pH 6, 25000 µM
[7] = target: A/North Carolina/39/09 (H1N1pdm/09-R) neuraminidase (Influenza A virus, UniProt C3W6G3); conditions: pH 6, 25000 µM
[8] = target: Parainfluenza virus Type 2 NA (Human parainfluenza 2 virus, UniProt P25465); conditions: pH 5
[9] = target: A/Texas/12/07 (H3N2/07-R) neuraminidase (Influenza A virus, UniProt D1FVK3)
[10] = target: B/Florida/04/06 (Yama/08-S) neuraminidase (Influenza B virus, UniProt J7JZU5); test: biochemical; conditions: pH 7, read-out: % of max NA act. + EDTA (pH)
[11] = target: S. pneumoniae ATCC 6305 (Strep 6) NanA (Streptococcus pneumoniae, UniProt P62575); conditions: pH 7
[12] = target: S. pneumoniae ATCC 49619 (Strep 4) NanA (Streptococcus pneumoniae, UniProt P62575); conditions: pH 7
[13] = target: A/Brisbane/59/07-Like (H1N1/07-R) neuraminidase (Influenza A virus, UniProt D5F1R0); conditions: pH 6, 25000 µM
[14] = target: Recombinant N1 protein A/Anhui/01/05 (N1/05-S) (Influenza A virus, UniProt D0PQ82); test: biochemical; conditions: pH 6, read-out: % of max NA act. + EDTA (pH)
[15] = target: A/California/07/09 (H1N1pdm/09-S) neuraminidase (Influenza A virus, UniProt C3W6G3); test: biochemical; conditions: pH 6, read-out: % of max NA act. + EDTA (pH)
NanA of S. pneumoniae = type: biochemical; conditions: pH 7
H3N2/07-R = type: binding, influenza A
influenza virus = type: binding
NA of influenza = type: biochemical; conditions: pH 7

In the case of `O=C(O)CN(CCN(CC(=O)O)CC(=O)O)CC(=O)O` [EDTA, ethylenediaminetetraacetic acid], the “% of max NA act. + EDTA (pH)” value [1] is reported as 50%, the “% of max NA act. + EDTA (pH)” value [2] is reported as 25% and the activity at 25000 µM [3] is reported as 92%. For the same molecule, the “% of max NA act. + EDTA (pH)” value [4] was 94%, the activity at 25000 µM [5] was 94% and the “% of max NA act. + EDTA (pH)” value [6] was 36%. For the same molecule, the “% of max NA act. + EDTA (pH)” value [7] was 63%, the “% of max NA act. + EDTA (pH)” value [8] was 27% and the “% of max NA act. + EDTA (pH)” value ([9]; pH 7, 25000 µM) was 61%. For the same molecule, the activity at 25000 µM [10] was 88%, the “% of max NA act. + EDTA (pH)” value [11] was 112% and the “% of max NA act. + EDTA (pH)” value [12] was 108%. The “% of max NA act. + EDTA (pH)” value [13] was 54%, the activity at 25000 µM [14] was 43% and the activity at 25000 µM [15] was 44%.

For `CC(=O)N[C@H]1[C@H]([C@H](O)[C@H](O)CO)OC(C(=O)O)=C[C@@H]1N=C(N)N` [Zan, Zanamivir], the IC50 [9] was 2.6 nM.

In the case of `O=S(=O)(O)CCCNC1CCCCC1` [CAPS, N-cyclohexyl-3-aminopropanesulfonic acid], the “NanA inhibition by sulfonic acid-containing buffer” value (NanA of S. pneumoniae) is reported as “susceptibility to CHES and CAPS inhibition”.

For “MBL: mannose-binding lectin, recombinant host protein used as capturing agent”, the “limit of detection: virus dilution” value (H3N2/07-R) was 450 fold dilution, the “limit of detection: virus dilution at which virus is captured” value (influenza virus) was 270-450 fold dilution and the “viral capture, ranking of receptors” value (influenza virus) was “best capturing factor among all mannose binding receptors”.

In the case of `O=S(=O)(O)CCNC1CCCCC1` [CHES, N-cyclohexyl-2-aminoethanesulfonic acid], the “NanA activity of S. pneumoniae in presence of buffer” value (NanA of S. pneumoniae) is reported as “severely reduced”, the “NanA inhibition by sulfonic acid-containing buffer” value (NanA of S. pneumoniae) is reported as “susceptibility to CHES and CAPS inhibition” and the “NA enzymatic activity of influenza in presence of buffer” value (NA of influenza) is reported as “substantially resistant”.

B1: Fetuin: highly sialylated protein isolated from bovine serum, used as capturing agent (protein, UniProt P12763 19-359, looked up)
Alpha-2-HS-glycoprotein: IPLDPVAGYKEPACDDPDTEQAALAAVDYINKHLPRGYKHTLNQIDSVKVWPRRPTGEVYDIEIDTLETTCHVLDPTPLANCSVRQQTQHAVEGDCDIHVLKQDGQFSVLFTKCDSSPDSAEDVRKLCPDCPLLAPLNDSRVVHAVEVALATFNAESNGSYLQLVEISRAQFVPLPVSVSVEFAVAATDCIAKEVVDPTKCNLLAEKQYGFCKGSVIQKALGGEDVRVTCTLFQTQPVIPQPQPDGAEAEAPSAVPDAAGPTPSAAGPPVASVVVGPSVVAVPLPLHRAHYDLRHTFSGVASVESSSGEAFHVGKTPIVGQPSIPGGPVRLCPGRIRYFKI
B1 was tested, and the “limit of detection: virus dilution” value (H3N2/07-R) was 30 fold dilution and the “limit of detection: virus dilution at which virus is captured” value (influenza virus) was 150-450 fold dilution.
